Read-outs that look alike come from different tables or passages of the source.
Key:
[1] = tested on: Leptosphaeria nodorum—LEPTNO; test: Glume Blotch of Wheat, in vivo whole plant, 24 Hour Protectant; conditions: for pest or weed control at 100 ppm: Leptosphaeria, read-out: LEPTNO in vivo 1 Day Protectant
[2] = tested on: Rhizoctonia solani (RHIZSO); test: microbe, parasite or virus in culture; format: cell-based; conditions: Rhizoctonia solani, read-out: RHIZSO in vitro Growth Inhibition
[3] = tested on: Stagonospora nodorum (Leptosphaeria nodorum—LEPTNO); test: In vitro fungal growth inhibition, Stagonospora nodorum (LEPTNO); format: cell-based; conditions: Leptosphaeria, read-out: LEPTNO in vitro Growth Inhibition
[4] = tested on: Phytophthora infestans (PHYTIN); test: microbe, parasite or virus in culture; format: cell-based; conditions: Phytophthora infestans, read-out: PHYTIN in vitro Growth Inhibition
Septoria tritici—SEPTTR = test: Leaf Blotch of Wheat, in vivo whole plant, 24 Hour Protectant; conditions: for pest or weed control at 100 ppm: Zymoseptoria tritici, 24 h, control of fungal infection vs untreated plants, read-out: SEPTTR in vivo 1 Day Protectant
Ustilago maydis (USTIMA) = test: microbe, parasite or virus in culture; format: cell-based; conditions: Mycosarcoma maydis, read-out: USTIMA in vitro Growth Inhibition
[5] = tested on: Mycosphaerella graminicola (Septoria tritici—SEPTTR); test: In vitro fungal growth inhibition, Mycosphaerella graminicola (SEPTTR); format: cell-based; conditions: Zymoseptoria tritici, read-out: SEPTTR in vitro Growth Inhibition
[6] = tested on: Magnaporthe grisea (Pyricularia oryzae—PYRIOR); test: microbe, parasite or virus in culture; format: cell-based; conditions: Pyricularia oryzae, read-out: PYRIOR in vitro Growth Inhibition
[7] = tested on: Phytophthora infestans—PHYTIN; test: whole plant or invertebrate; format: in vivo; conditions: Phytophthora, in Solanum lycopersicum, 24 h, read-out: PHYTIN in vivo 1 Day Protectant
Erysiphe graminis—ERYSGT = test: Powdery Mildew of Wheat, in vivo whole plant, 24 Hour Protectant
[8] = tested on: Puccinia recondita—PUCCRT; test: Brown Rust of Wheat, in vivo whole plant, 24 Hour Protectant; conditions: for pest or weed control at 100 ppm: Puccinia, read-out: PUCCRT in vivo 1 Day Protectant
[9] = 100 ppm spray, 24 hour protectant, wheat, control of fungal infection vs untreated plants
[10] = 100 ppm spray, 24 hour protectant, wheat
[11] = Erysiphe; 100 ppm spray, 24 hour protectant, wheat; control of fungal infection vs untreated plants; read-out: ERYSGT in vivo 1 Day Protectant
[12] = 100 ppm spray, wheat, 24 hour protectant, % control of fungal infection vs untreated plants
[13] = Erysiphe; 100 ppm spray, wheat, 24 hour protectant, % control of fungal infection vs untreated plants; read-out: ERYSGT in vivo 1 Day Protectant
[14] = 100 ppm spray, wheat, 24 hour protectant, control of fungal infection vs untreated plants
[15] = 100 ppm spray, wheat, 24 hour protectant
[16] = Erysiphe; 100 ppm spray, wheat, 24 hour protectant; control of fungal infection vs untreated plants; read-out: ERYSGT in vivo 1 Day Protectant

Compound	inhibition at 25 ppm [2]	inhibition at 25 ppm ([3]; 25 ppm in growth medium)	inhibition at 25 ppm [4]	inhibition at 25 ppm (Ustilago maydis (USTIMA))	inhibition at 25 ppm ([5]; 25 ppm in growth medium)	inhibition at 25 ppm [6]	pest or weed control at 100 ppm [7]	further results
COc1ccnc(C(=O)N[C@@H]2CC3CC2c2ccccc23)c1O (some centres unmarked) [Compound 290]	> 80%	> 80%	< 80%	< 80%	> 80%	> 80%	< 25%	LEPTNO in vivo 1 Day Protectant [1, 9]: + +; pest or weed control at 100 ppm (Septoria tritici—SEPTTR; [10]): 25 to 74%; pest or weed control at 100 ppm (Erysiphe graminis—ERYSGT; [11]): 25 to 74%; PUCCRT in vivo 1 Day Protectant [8, 9]: + +
COc1ccnc(C(=O)N[C@H]2COC(=O)[C@H](Cc3ccccc3)[C@@H](OC(=O)C(C)C)[C@H](C)OC2=O)c1OC(=O)c1cccs1 [Compound 674]	< 80%	> 80%	< 80%	< 80%	> 80%	< 80%	< 25%	pest or weed control at 100 ppm [1, 12]: 25 to 74%; SEPTTR in vivo 1 Day Protectant (Septoria tritici—SEPTTR; [12]): + +; pest or weed control at 100 ppm (Erysiphe graminis—ERYSGT; [13]): < 25%; PUCCRT in vivo 1 Day Protectant [8, 12]: + +
O=C(NCCCCc1ccccc1)c1ncccc1O [Compound 234]	< 80%	> 80%	> 80%	< 80%	< 80%	> 80%	< 25%	pest or weed control at 100 ppm [1, 9]: < 25%; pest or weed control at 100 ppm (Septoria tritici—SEPTTR; [10]): 25 to 74%; pest or weed control at 100 ppm (Erysiphe graminis—ERYSGT; [11]): < 25%; pest or weed control at 100 ppm [8, 9]: < 25%
COc1ccnc(C(=O)N[C@H]2O[C@@H](C)[C@@H](OC(C)=O)[C@@H](OC(C)=O)[C@@H]2OC(C)=O)c1O [Compound 333]	< 80%	< 80%	< 80%	< 80%	< 80%	< 80%	< 25%	pest or weed control at 100 ppm [1, 14]: 25 to 74%; pest or weed control at 100 ppm (Septoria tritici—SEPTTR; [15]): 25 to 74%; pest or weed control at 100 ppm (Erysiphe graminis—ERYSGT; [16]): < 25%; pest or weed control at 100 ppm [8, 14]: 25 to 74%
COc1ccnc(C(=O)N[C@H]2COC(=O)[C@H](Cc3ccccc3)[C@@H](OC(=O)C(C)C)[C@H](C)OC2=O)c1OC(=O)C1CCCCC1 [Compound 612]	< 80%	> 80%	< 80%	< 80%	< 80%	< 80%	< 25%	LEPTNO in vivo 1 Day Protectant [1, 12]: + +; SEPTTR in vivo 1 Day Protectant (Septoria tritici—SEPTTR; [12]): + +; pest or weed control at 100 ppm (Erysiphe graminis—ERYSGT; [13]): < 25%; PUCCRT in vivo 1 Day Protectant [8, 12]: + +
COc1ccnc(C(=O)NC2COC(=O)CC(c3ccccc3)C(=O)OC2)c1O (centres unmarked) [Compound 375]	< 80%	< 80%	< 80%	< 80%	< 80%	< 80%	< 25%	pest or weed control at 100 ppm [1, 14]: 25 to 74%; pest or weed control at 100 ppm (Septoria tritici—SEPTTR; [15]): 25 to 74%; pest or weed control at 100 ppm (Erysiphe graminis—ERYSGT; [16]): < 25%; pest or weed control at 100 ppm [8, 14]: < 25%
COc1ccnc(C(=O)N[C@H]2COC(=O)[C@H](Cc3ccccc3)[C@@H](OC(=O)C(C)C)[C@H](C)OC2=O)c1OC(=O)Cc1ccccc1 [Compound 648]	< 80%		< 80%	< 80%		> 80%	< 25%	LEPTNO in vivo 1 Day Protectant ([1]; in vivo): + +; inhibition at 25 ppm [3]: < 80%; SEPTTR in vivo 1 Day Protectant (Septoria tritici—SEPTTR; in vivo): + +; inhibition at 25 ppm [5]: < 80%; ERYSGT in vivo 1 Day Protectant (Erysiphe graminis—ERYSGT; in vivo): + +; PUCCRT in vivo 1 Day Protectant ([8]; in vivo): + +

From US6706740B2, “Fungicidal heterocyclic aromatic amides and their compositions, methods of use and preparation” (Dow AgroSciences LLC, priority 1999, dated 2004)
